Assay results taken from ChEMBL document CHEMBL1201862, “PubChem BioAssay data set” (2004).
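Briefly, cells in 96-well plates were exposed to five compound concentrations for 48 h, and endpoints were estimated by linear interpolation. GI50 marks 50% less growth.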 Activity calls are given as the source filed them. No stated cut-off is given here; in the data, active = GI50 up to about 1.1 µM and inactive = higher. Where a SMILES comes first, the peptide text is derived from it. [ ]: non-standard residue; d: D form. The star is where a group is joined. Chg = N[CH](C(=O)O)C1CCCCC1; Cbz = O=C(OCc1ccccc1)*; OBn = c1ccc(CO*)cc1

How the values were obtained:
Test in all cases: growth of human tumour cells (NCI), 48 h
UACC-257 = tested on: UACC-257
Hs-578T = tested on: Hs-578T
NCI-H226 = tested on: NCI-H226
CAKI-1 = tested on: CAKI-1
SF-268 = tested on: SF-268
SW-620 = tested on: SW-620
SK-OV-3 = tested on: SK-OV-3
HCT-15 = tested on: HCT-15
KM12 = tested on: KM12
NCI-H460 = tested on: NCI-H460
MDA-MB-435 = tested on: MDA-MB-435
K562 = tested on: K562
RXF 393 = tested on: RXF 393
OVCAR-5 = tested on: OVCAR-5
ACHN = tested on: ACHN
LOX IMVI = tested on: LOX IMVI
NCI-H522 = tested on: NCI-H522
SK-MEL-2 = tested on: SK-MEL-2
BT-549 = tested on: BT-549

Row | SMILES | GI50 (UACC-257) | GI50 (Hs-578T) | GI50 (NCI-H226) | GI50 (CAKI-1) | GI50 (SF-268) | GI50 (SW-620) | GI50 (SK-OV-3) | GI50 (HCT-15) [µM] | GI50 (KM12) | GI50 (NCI-H460) | GI50 (MDA-MB-435) | GI50 (K562) | GI50 (RXF 393) | GI50 (OVCAR-5) | GI50 (ACHN) | GI50 (LOX IMVI) | GI50 (NCI-H522) | GI50 (SK-MEL-2) | GI50 (BT-549)
1 | CCCCCCCCCCCCCCCCCC(=O)OCC(COC1OC(CS(=O)(=O)O)C(O)C(O)C1O)OC(=O)CCCCCCCCCCCCCCCCC (stereo not drawn) | > 100 µM (inactive) | > 100 µM (inactive) | > 100 µM (inactive) | > 100 µM (inactive) | > 100 µM (inactive) | > 100 µM (inactive) | > 100 µM (inactive) | > 100 | > 100 µM (inactive) | > 100 µM (inactive) | > 100 µM (inactive) | > 100 µM (inactive) | > 100 µM (inactive) | > 100 µM (inactive) | > 100 µM (inactive) | > 100 µM (inactive) | > 100 µM (inactive) |  | 
2 | CC1(C)CCC(C)(C)C1C(=O)NC(O)C(=O)O (stereo not drawn) |  | > 100 µM (inactive) | > 100 µM (inactive) |  | > 100 µM (inactive) | > 100 µM (inactive) | > 100 µM (inactive) | > 100 |  | > 100 µM (inactive) | > 100 µM (inactive) | > 100 µM (inactive) |  | > 100 µM (inactive) | > 100 µM (inactive) | > 100 µM (inactive) |  | > 100 µM (inactive) | 
3 | CC1(C)OCC2OC3([C@@H]4OC(C)(C)O[C@H]4CO)OC(C)(C)OC3C2O1 (stereo partly drawn) | > 100 µM (inactive) |  | > 100 µM (inactive) | > 100 µM (inactive) |  | > 100 µM (inactive) |  | > 100 | > 100 µM (inactive) | > 100 µM (inactive) | > 100 µM (inactive) | > 100 µM (inactive) | > 100 µM (inactive) | > 100 µM (inactive) | > 100 µM (inactive) | > 100 µM (inactive) |  | > 100 µM (inactive) | > 100 µM (inactive)
4 | COc1ccc2c(c1)CCCN1CCc3ccccc3C21 (stereo not drawn) | 47.8 µM (inactive) | 35.7 µM (inactive) | 30.1 µM (inactive) | 74.5 µM (inactive) | 39.9 µM (inactive) | 67.8 µM (inactive) | 52.2 µM (inactive) | 30.5 | 34.7 µM (inactive) | 56.1 µM (inactive) | 21.7 µM (inactive) | 45.7 µM (inactive) | 25.9 µM (inactive) | 70.3 µM (inactive) | 47.3 µM (inactive) | 32.5 µM (inactive) | 52.1 µM (inactive) | 40.5 µM (inactive) | 
5 | COC(=O)C(NC(=O)C(CC(=O)OCc1ccccc1)NC(=O)OCc1ccccc1)C1CCCCC1 (stereo not drawn) (Cbz-Asp(OBn)-[Chg]-OMe; configuration not given here) | > 100 µM (inactive) | < 0.01 µM (active) | > 100 µM (inactive) | > 100 µM (inactive) | > 100 µM (inactive) | > 100 µM (inactive) | > 100 µM (inactive) | > 100 | > 100 µM (inactive) | > 100 µM (inactive) | > 100 µM (inactive) | > 100 µM (inactive) | > 100 µM (inactive) | > 100 µM (inactive) | > 100 µM (inactive) | > 100 µM (inactive) | > 100 µM (inactive) | 51.9 µM (inactive) | 
6 | Nn1c(=S)[nH]nc(/C=C/c2c(O)ccc3ccccc23)c1=O | 5.3 µM (inactive) |  |  | 5.55 µM (inactive) | 2.96 µM (inactive) | 4.74 µM (inactive) | 11 µM (inactive) | 3.13 | 6.12 µM (inactive) | 4.58 µM (inactive) | 13.2 µM (inactive) | 5.27 µM (inactive) |  | 7.08 µM (inactive) | 4.93 µM (inactive) | 2.48 µM (inactive) | 3.32 µM (inactive) | 13.3 µM (inactive) | 5.43 µM (inactive)
7 | COCC(C)(C)/N=C/N1Cc2cc3ccccc3nc2C1 | > 100 µM (inactive) |  | > 100 µM (inactive) | > 100 µM (inactive) | > 100 µM (inactive) | > 100 µM (inactive) | > 100 µM (inactive) | > 100 | > 100 µM (inactive) | > 100 µM (inactive) |  | > 100 µM (inactive) | > 100 µM (inactive) |  | > 100 µM (inactive) |  | > 100 µM (inactive) | > 100 µM (inactive) | 
8 | CC(C)c1ccc2nc3ccc(C(=O)NCCN4CCN(c5ccccc5)CC4)cn3c(=O)c2c1 | 4.67 µM (inactive) | 4.93 µM (inactive) | > 100 µM (inactive) | 5.06 µM (inactive) | > 100 µM (inactive) | 8.49 µM (inactive) | > 100 µM (inactive) | 6.38 | 20.2 µM (inactive) | 4.3 µM (inactive) |  | 2.45 µM (inactive) |  | > 100 µM (inactive) |  |  | 5.58 µM (inactive) |  | 6.3 µM (inactive)
9 | CCOc1cc2c(=O)oc3c(OC)ccc4ccc(c1OC)c2c43 | > 100 µM (inactive) | 44.8 µM (inactive) | 60 µM (inactive) | > 100 µM (inactive) | > 100 µM (inactive) | > 100 µM (inactive) | 25.1 µM (inactive) | > 100 | > 100 µM (inactive) | 25.1 µM (inactive) | > 100 µM (inactive) | > 100 µM (inactive) | 52.7 µM (inactive) | > 100 µM (inactive) | 37.4 µM (inactive) | > 100 µM (inactive) | 16.7 µM (inactive) | > 100 µM (inactive) | 
10 | CCOC(=O)Cn1c(=O)c2nc(SC)sc2n(-c2ccccc2)c1=S | > 100 µM (inactive) | 4.18 µM (inactive) | 18.4 µM (inactive) |  | 32.4 µM (inactive) | 50.4 µM (inactive) | 22.7 µM (inactive) | 52 | 25.8 µM (inactive) | 30.1 µM (inactive) | 64.6 µM (inactive) | > 100 µM (inactive) | 21 µM (inactive) | 93.3 µM (inactive) | 13.9 µM (inactive) | 94 µM (inactive) | 68.1 µM (inactive) | 17.5 µM (inactive) | 
11 | O=C(OCc1ccccc1)N1CCCc2c(n(S(=O)(=O)c3ccccc3)c3ccccc23)C1 | > 100 µM (inactive) | 78.7 µM (inactive) | > 100 µM (inactive) | > 100 µM (inactive) | > 100 µM (inactive) | > 100 µM (inactive) | > 100 µM (inactive) | > 100 | > 100 µM (inactive) | > 100 µM (inactive) |  | > 100 µM (inactive) | 53.8 µM (inactive) | > 100 µM (inactive) | > 100 µM (inactive) | > 100 µM (inactive) | 29.1 µM (inactive) | > 100 µM (inactive) | > 100 µM (inactive)
12 | Cn1c2ccccc2n2c(=O)c3c(c(C#N)c12)CCCC3 | > 100 µM (inactive) |  | > 100 µM (inactive) | > 100 µM (inactive) | > 100 µM (inactive) | > 100 µM (inactive) | > 100 µM (inactive) | > 100 | > 100 µM (inactive) | > 100 µM (inactive) |  | > 100 µM (inactive) | > 100 µM (inactive) | > 100 µM (inactive) | > 100 µM (inactive) | > 100 µM (inactive) |  | > 100 µM (inactive) | 
